Values quoted from earlier work in patent US20240309009A1, “Anxiolytic Compounds, Pharmaceutical Compositions, and Methods of Treating Anxiety and Other Disorders” (Miralogx LLC, priority 2022, published 2024).
Like-named read-outs stand apart in the source and are kept apart here.

Legend:
[1] = unlike ibogaine

Structure (SMILES)	toxicity compared with ibogaine (cell cultures)	formation of new dendrites (branches) (rat nerve cells)	formation of new spines on dendrites (rat nerve cells)	water solubility [1]	toxicity compared with ibogaine (zebrafish)	duration of effects (inhaled or injected)	duration of effects (orally ingested along with a monoamine oxidase inhibitor (MAOI))
COc1ccc2c3c([nH]c2c1)CCN(C)CC3 [TBG, Tabernanthalog]	less toxic than ibogaine	increased formation of new dendrites	new spines on those dendrites	water-soluble	less toxic than ibogaine		
CN(C)CCc1c[nH]c2ccccc12 [DMT, N,N-Dimethyltryptamine]						5 to 15 min	three
